The subject of one experiment is U87MG cells. Briefly: Cellular assay, inhibition of 2-HG production in U87MG cells. It counts as cell-based. Particulars: Homo sapiens, U-87 MG, 48 h. The method, then:
Cells (HT1080 or U87MG) are grown in T125 flasks in DMEM containing 10% FBS, 1× penicillin/streptomycin and 500 ug/mL G418 (present in U87MG cells only). They are harvested by trypsin and seeded into 96 well white bottom plates at a density of 5000 cell/well in 100 ul/well in DMEM with 10% FBS. […] Cells are incubated overnight at 37° C. in 5% CO2. The next day test compounds are made up at 2× the final concentration and 100 ul are added to each cell well. The final concentration of DMSO is 0.2% and the DMSO control wells are plated in row G. The plates are then placed in the incubator for 48 hours. […] The cell plate is placed back in the incubator for another 24 hours. At 72 hours post compound addition, 10 mL/plate of Promega Cell Titer Glo reagent is thawed and mixed. The cell plate is removed from the incubator and allowed to equilibrate to room temperature. Then 100 ul of Promega Cell Titer Glo reagent is added to each well of media. The cell plate is then placed on an orbital shaker for 10 minutes and then allowed to sit at room temperature for 20 minutes. The plate is then read for luminescence with an integration time of 500 ms.

The target in a further experiment is IDH1 R132H (Homo sapiens (Human), UniProt O75874, R132H). Description: In vitro NADPH depletion assay for IDH1m inhibitors (R132H). Particulars: IDH1 R132H enzyme, read-out: IDH R132H IC50. It counts as biochemical. The method, then:
(§1) A test compound is prepared as 10 mM stock in DMSO and diluted to 50× final concentration in DMSO, for a 50 μl reaction mixture. IDH enzyme activity converting alpha-ketoglutarate to 2-hydroxyglutaric acid is measured using a NADPH depletion assay. In the assay the remaining cofactor is measured at the end of the reaction with the addition of a catalytic excess of diaphorase and resazurin, to generate a fluorescent signal in proportion to the amount of NADPH remaining. […] The reaction is started with the addition of […] Substrate Mix ([…] NADPH, 5 mM alpha-ketoglutarate, in Assay Buffer) and the mixture is incubated for 90 minutes at room temperature.

The target in a further experiment is IDH1 R132C (Homo sapiens (Human), UniProt O75874, R132C). Description: In vitro NADPH depletion assay for IDH1m inhibitors (R132C). The format is biochemical. The following applies: IDH1 R132C enzyme, read-out: IDH R132C IC50. The method, then: as §1
The concentration of NADPH and alpha-ketoglutarate in the Substrate Buffer is 20 μM and 1 mM, respectively.

IDH1 R132C, sequence (O75874 whole entry R132C): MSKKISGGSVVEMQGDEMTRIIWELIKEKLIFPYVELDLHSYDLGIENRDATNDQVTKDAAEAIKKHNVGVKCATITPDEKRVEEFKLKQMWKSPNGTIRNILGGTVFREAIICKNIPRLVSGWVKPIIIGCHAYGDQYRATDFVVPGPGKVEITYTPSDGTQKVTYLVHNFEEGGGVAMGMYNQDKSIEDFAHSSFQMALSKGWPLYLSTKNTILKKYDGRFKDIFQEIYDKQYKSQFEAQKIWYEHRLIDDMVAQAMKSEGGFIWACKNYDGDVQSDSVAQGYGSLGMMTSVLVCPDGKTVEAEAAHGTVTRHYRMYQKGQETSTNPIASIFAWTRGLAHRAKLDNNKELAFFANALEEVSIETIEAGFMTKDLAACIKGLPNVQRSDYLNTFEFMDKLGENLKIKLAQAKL
IDH1 R132H, sequence (O75874 whole entry R132H): as the sequence (O75874 whole entry R132C) above, with C132H counted along it

On to `CCOC(=O)CN1C[C@@H](C(=O)N(c2cccc(F)c2)[C@H](C(=O)NC2CC(F)(F)C2)c2ccccc2Cl)N(c2cc(C#N)ccn2)C1=O` [Compound 94, Ethyl 2-((4S)-4-((1-(2-chlorophenyl)-2-((3,3-difluorocyclobutyl)amino)-2-oxoethyl)(3-fluorophenyl)carbamoyl)-3-(4-cyanopyridin-2-yl)-2-oxoimidazolidin-1-yl)acetate], for which the IC50 (usually the concentration that inhibits the measured activity by half) with U87MG cells was less than 100 nM. For `CS(=O)(=O)c1cc(F)cc(N(C(=O)[C@@H]2CCC(=O)N2c2cc(C#N)ccn2)C(C(=O)NC2CC(F)(F)C2)c2ccccc2Cl)c1` (mixture of isomers) [Compound 110, (2S)—N-(1-(2-Chlorophenyl)-2-((3,3-difluorocyclobutyl)amino)-2-oxoethyl)-1-(4-cyanopyridin-2-yl)-N-(3-fluoro-5-(methylsulfonyl)phenyl)-5-oxopyrrolidine-2-carboxamide], the IC50 with U87MG cells, at IDH1 R132H and on IDH1 R132C was less than 100 nM throughout. Regarding `O=C(NC1CC(F)(F)C1)[C@H](c1ccccc1Cl)N(C(=O)[C@@H]1CCC(=O)N1c1cccc(F)n1)c1cccc(F)c1` [Compound 11], on IDH1 R132C, the 50% inhibitory concentration (IC50) was 100 to 500 nM. The molecule `CS(=O)(=O)c1cc(F)cc(N(C(=O)[C@@H]2CCC(=O)N2c2nccc(C#N)n2)[C@H](C(=O)NC2CC(F)(F)C2)c2ccccc2Cl)c1` [Compound 109, (S)—N—((S)-1-(2-Chlorophenyl)-2-((3,3-difluorocyclobutyl)amino)-2-oxoethyl)-1-(4-cyanopyrimidin-2-yl)-N-(3-fluoro-5-(methylsulfonyl)phenyl)-5-oxopyrrolidine-2-carboxamide] had a concentration for half-maximal inhibition (IC50) in the experiment on U87MG cells of 100 to 500 nM. Molecule `O=C(NC1CC(F)(F)C1)[C@H](c1ccccc1Cl)N(C(=O)[C@@H]1CCC(=O)N1c1ccccn1)c1cccc(F)c1` [Compound 5] displayed an IC50 with U87MG cells of 100 to 500 nM. In the experiment with U87MG cells, `N#Cc1ccnc(N2C(=O)CC[C@H]2C(=O)N(c2cccc(C3(O)CC3)c2)[C@H](C(=O)NC2CC(F)(F)C2)c2ccccc2Cl)c1` [Compound 140, (S)—N—((S)-1-(2-Xhlorophenyl)-2-(3,3-difluorocyclobutylamino)-2-oxoethyl)-1-(4-cyanopyridin-2-yl)-N-(3-(1-hydroxycyclopropyl)phenyl)-5-oxopyrrolidine-2-carboxamide] gave an IC50 of less than 100 nM.

As to `O=C(NC1CC(F)(F)C1)[C@H](c1ccccc1Cl)N(C(=O)[C@@H]1CCC(=O)N1c1cnccn1)c1cccc(F)c1` [Compound 18], the 50% inhibitory concentration (IC50) with U87MG cells was less than 100 nM.

As to `CS(=O)(=O)c1cc(F)cc(N(C(=O)[C@@H]2CCC(=O)N2c2cc(C#N)ccn2)C(C(=O)NC2CCC(F)(F)CC2)c2ccccc2Cl)c1` (mixture of isomers) [Compound 105, (2S)—N-(1-(2-Chlorophenyl)-2-((4,4-difluorocyclohexyl)amino)-2-oxoethyl)-1-(4-cyanopyridin-2-yl)-N-(3-fluoro-5-(methylsulfonyl)phenyl)-5-oxopyrrolidine-2-carboxamide], in the experiment with U87MG cells, the IC50 is less than 100 nM.

For `O=C(NC1CC(F)(F)C1)[C@H](c1ccccc1Cl)N(C(=O)[C@@H]1CCC(=O)N1c1nccc2ccccc12)c1cccc(F)c1` [Compound 16], the IC50 at IDH1 R132H and on IDH1 R132C was 100 to 500 nM each time. Molecule `N#Cc1ccnc(N2C(=O)OC[C@H]2C(=O)N(c2cccc(F)c2)[C@H](C(=O)NC2CCC(F)(F)CC2)c2ccccc2Cl)c1` [Compound 78, (S)—N—((S)-1-(2-Chlorophenyl)-2-((4,4-difluorocyclohexyl)amino)-2-oxoethyl)-3-(4-cyano-pyridin-2-yl)-N-(3-fluorophenyl)-2-oxooxazolidine-4-carboxamide] yielded an IC50 in the experiment with U87MG cells of less than 100 nM. On to `O=C(NC1CC(F)(F)C1)[C@H](c1ccccc1Cl)N(C(=O)[C@@H]1CCC(=O)N1c1ccccc1)c1cccc(F)c1` [Compound 23], for which the IC50 in the experiment on U87MG cells lay within 100 to 500 nM.

The values are drawn from patent US11021515B2, “Therapeutically active compounds and their methods of use” (Agios Pharmaceuticals, Inc., priority 2013, dated 2021).
